Experimental data reported in paper doi:10.64898/2025.12.18.695269, “Structural Basis of TACO1-Mediated Efficient Mitochondrial Translation” (bioRxiv, 2025).

Columns and labels:
TACO1 [1] = molecular target: T1, TACO1 (Homo sapiens, UniProt Q9BSH4); assay: fluorescence increase of BODIPY-labelled nucleotide, saturation fit; type: binding; settings: labelled compound; 500 nM TACO1, 0-30 μM ligand, 10 min
T1 construct: recombinant TACO1

TACO1 [2] = molecular target: T1, TACO1; assay: competition with BODIPY-FL-GTPγS fluorescence binding; settings: pre-incubation with GMPPNP before BODIPY-FL-GTPγS; competitive

Work on BODIPY-FL-GTPγS yielded a Kd (TACO1 [1]) of 25 µM.

With `Nc1nc2c(ncn2[C@@H]2O[C@H](COP(=O)(O)OP(=O)(O)NP(=O)(O)O)[C@@H](O)[C@H]2O)c(=O)[nH]1` [GMPPNP] the “competition with BODIPY-FL-GTPγS fluorescence binding” value (TACO1 [2]) was “This effect was abolished by pre-incubation with the non-hydrolyzable GTP analog GMPPNP”.
